Entries after “also recorded” stand apart in the source; their conditions may differ. Like-named read-outs stand apart in the source and are kept apart here.
Columns and labels:
CDK2 [1] = assay: CDK2 abundance in total zebrafish lysates (immunoblot); assay type: in vivo, zebrafish (Danio rerio); conditions: at concentrations of 0.1 nM and 1 μM
Procedure: (§1) The next day fish were transferred to a fresh solution of kainic acid 300 μM for 50 min, led recover in fresh E3 media for 2 hours, and fixed with 4% paraformaldehyde. Animals were processed for immunofluorescence analysis as described for the cisplatin treatments. After the 24 hours incubation with PROTAC-8 and before the incubation with the ototoxin, some fish were collected for immunoblot analysis of CDK2 abundance.
(§2) Specific bands were quantified using ImageJ (NIH).
Further to find the effect of AZD5438-PROTAC 8 (Example 2) in protecting zebrafish hair cells from cisplatin otoxicity, zebrafish were pre-incubated with AZD5438-PROTAC 8 and then co-incubated with cisplatin for six hours. […] To check the degradation of CDK2 in zebrafish, fish were treated with AZD5438-PROTAC 8 in different concentration and total zebrafish lysates used for immunoblots (FIG. 12B). AZD5438-PROTAC 8 degrades CDK2 at concentrations of 0.1 nM and 1 μM (FIGS. 12B-12C).

neuromast hair cells = assay: Zebrafish neuromast hair cell protection from kainic acid; assay type: in vivo, zebrafish (Danio rerio); conditions: kainic acid 300 μM for 50 min after pre-treatment
Procedure: Four days post-fertilization (dpf) zebrafish (Danio rerio) larvae were obtained by pair mating of adult TuAB fish maintained at Creighton University by standard methods approved by the Institutional Animal Care and Use Committee. Experimental fish were maintained at 28.5° C. in E3 media (5 mM NaCl, 0.17 mM KCl, 0.33 mM CaCl2 and […] MgSO4, pH 7.2) until the day of the experiment.
as §1
(§3) Control animals were exposed to 0.1% DMSO in E3 media. Images were taken employing a Zeiss LSM 710 confocal microscope with a 63× oil objective.
For the screening of the effect of PROTAC-8, neuromast hair cell counts were performed manually, employing a Zeiss AxioSkop 2 fluorescence microscope with a 40× oil objective. Confocal imaging was performed using a Zeiss LSM 710 confocal laser scanning image system with a 63× oil objective. Images were captured at room temperature with automatically set sectioning. The acquired images were processed with ZEN black edition software. […]

[2] = system: zebrafish lateral line neuromast hair cells; assay: Zebrafish neuromast hair cell protection from cisplatin; assay type: in vivo; conditions: for protection of zebrafish lateral line neuromast hair cells from cisplatin toxicity: pre-incubation, then co-incubation with cisplatin for 6 hours
Text: Four days post-fertilization (dpf) zebrafish (Danio rerio) larvae were obtained by pair mating of adult TuAB fish maintained at Creighton University by standard methods approved by the Institutional Animal Care and Use Committee.
Animals were immunostained for the hair cell marker, otoferlin (HCS-1, DSHB), and process for fluorescence microscopy. Otic, middle, and opercular neuromasts were identified, and hair cells were manually counted using a Zeiss AxioSkop 2 fluorescence microscope with a 40× oil objective.
as §3
For the screening of the effect of PROTAC-8, neuromast hair cell counts were performed manually, employing a Zeiss AxioSkop 2 fluorescence microscope with a 40× oil objective. Confocal imaging was performed using a Zeiss LSM 710 confocal laser scanning image system with a 63× oil objective. Images were captured at room temperature with automatically set sectioning. The acquired images were processed with ZEN black edition software. Z-stack images are presented as flat Z-projections.

[3] = system: zebrafish lateral line neuromast hair cells; conditions: zebrafish lateral line neuromasts, background statement, cited from earlier work
cochlear explants = conditions: cited from earlier work
[4] = system: cisplatin-induced hearing loss; conditions: mouse; previous work; cited from earlier work
CDK2 [5] = target: CDK2 (Mus musculus, UniProt P97377); conditions: HEI-OC1 cells; for CDK2 degradation (immunoblot): 0.1 nM to 1 μM
Procedure: HEI-OC1 cells were maintained in DMEM with 10% of Fetal bovine serum at 33° C. in a 10% CO2 atmosphere. […] Cells were harvested in RIPA buffer (NaCl 150 mM, Tris-HCl 50 mM, Nonidet-40 1%, Sodium deoxycholate 0.5%, SDS 0.1%, pH 7.4) containing protease (Sigma-Aldrich, MO P8340) and phosphatase inhibitors (ThermoFisher, CA, A32957) for immunoblot analysis.
Lysates were prepared after a 24 hours incubation and processed for Western blot analysis.
Membranes were blocked for 1 hour at room temperature with 3% milk followed by overnight incubation with the primary antibody in 3% milk. After several washes and the secondary incubation for 1 hour, membranes were developed employing an iBright FL1000 (ThermoFisher, CA). Immunoblots were stripped and probed for β-actin as the loading control. Specific bands were quantified using ImageJ (NIH).

CDK1, CDK5, CDK7 or CDK9 = assay: Abundance of closely related CDKs in HEI-OC1 cells (immunoblot); assay type: cell-based; conditions: 24 hours
Text: as §2

CDK2 [6] = target: T1, CDK2 (Homo sapiens, UniProt P24941); assay: CDK2 degradation in HeLa cell line (immunoblot); assay type: cell-based; conditions: HeLa cells incubated overnight, different concentrations
T1 construct: endogenous in cells; host or cells: HeLa
Procedure: (§4) To test the efficacy of the synthesized AZD5438-PROTACs, HeLa cells were incubated overnight with different concentrations of AZD5438-PROTAC Examples 1, 2, 5, and 6.

CDK9 = target: T2, CDK9 (Homo sapiens, UniProt P50750); assay: CDK9 degradation in HeLa cell line (immunoblot); assay type: cell-based; conditions: HeLa cells incubated overnight
T2 construct: endogenous in cells; host or cells: HeLa
Procedure: as §4

CDK1 = target: T3, CDK1 (Homo sapiens, UniProt P06493); assay: CDK1 degradation in HeLa cell line (immunoblot); assay type: cell-based; conditions: HeLa cells incubated overnight
T3 construct: endogenous in cells; host or cells: HeLa
Procedure: as §4

T2 sequence (P50750 whole entry): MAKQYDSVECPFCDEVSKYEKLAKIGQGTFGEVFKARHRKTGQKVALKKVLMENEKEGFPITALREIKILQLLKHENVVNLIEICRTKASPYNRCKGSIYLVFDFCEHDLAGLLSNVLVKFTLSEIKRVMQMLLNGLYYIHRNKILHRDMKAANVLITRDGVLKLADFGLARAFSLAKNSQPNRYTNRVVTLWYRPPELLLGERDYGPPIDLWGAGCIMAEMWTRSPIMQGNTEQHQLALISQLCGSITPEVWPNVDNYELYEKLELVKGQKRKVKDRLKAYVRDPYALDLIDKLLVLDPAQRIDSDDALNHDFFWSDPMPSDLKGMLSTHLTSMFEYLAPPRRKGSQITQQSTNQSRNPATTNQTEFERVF
T3 sequence (P06493 whole entry): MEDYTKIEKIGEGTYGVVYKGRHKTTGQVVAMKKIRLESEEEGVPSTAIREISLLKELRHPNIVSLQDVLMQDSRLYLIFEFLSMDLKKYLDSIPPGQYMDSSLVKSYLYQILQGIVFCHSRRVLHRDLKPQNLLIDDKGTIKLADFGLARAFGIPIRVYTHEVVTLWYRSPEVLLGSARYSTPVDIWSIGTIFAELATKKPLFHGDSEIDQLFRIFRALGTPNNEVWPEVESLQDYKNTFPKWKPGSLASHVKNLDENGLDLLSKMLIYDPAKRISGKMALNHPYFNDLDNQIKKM

Row | SMILES | CDK2 degradation in zebrafish (CDK2 [1]) | protection of neuromast hair cells from kainic acid damage (neuromast hair cells) | protection against cisplatin-induced ototoxicity / hearing loss in vivo [4] | CDK2 degradation (immunoblot) (CDK2 [5]; 24 hours) | degradation / abundance of closely related CDKs (CDK1, CDK5, CDK7, CDK9); selectivity (CDK1, CDK5, CDK7 or CDK9) | CDK2 degradation (immunoblot) (CDK2 [6]) | further results
1 | Cc1ncc(-c2ccnc(Nc3ccc(S(C)(=O)=O)cc3)n2)n1C(C)C [AZD5438] | without CDK2 degradation | able to protect the zebrafish lateral line neuromasts from cisplatin and kainic acid damage | best protection against cisplatin-induced ototoxicity; also recorded: fully protects against cisplatin-induce hearing loss in mice by local delivery; also recorded: can prevent cisplatin-induced ototoxicity in vivo; also recorded: hair cell loss was reduced |  |  |  | protection of zebrafish lateral line neuromast hair cells from cisplatin toxicity [2]: able to protect the zebrafish lateral line neuromasts from cisplatin and kainic acid damage; protection of zebrafish lateral line against cisplatin ototoxicity (earlier studies) [3]: hair cell loss was reduced; protection of zebrafish lateral line against cisplatin ototoxicity (earlier studies) ([3]; listed as ACD5438): protects zebrafish lateral line against cisplatin ototoxicity; IC50 (cochlear explants; cochlear explants, cisplatin, read-out: IC50, protection against cisplatin toxicity in cochlear explants): 5 nM; protection against cisplatin-induced ototoxicity in mouse cochlear explants (cochlear explants; previous study): best protection against cisplatin-induced ototoxicity
2 | Cc1ncc(-c2ccnc(Nc3ccc(S(=O)(=O)CCCc4cn(CCOCCOCCOCCNc5cccc6c5C(=O)N(C5CCC(=O)NC5=O)C6=O)nn4)cc3)n2)n1C(C)C (centres unmarked) [Example 1, 2-(2,6-dioxopiperidin-3-yl)-4-((2-(2-(2-(2-(4-(3-((4-((4-(1-isopropyl-2-methyl-1H-imidazol-5-yl)pyrimidin-2-yl)amino)phenyl)sulfonyl)propyl)-1H-1,2,3-triazol-1-yl)ethoxy)ethoxy)ethoxy)ethyl)amino)isoindoline-1,3-dione] |  |  |  | did not show any CDK2 degradation | nor changes in the abundance of any of the closely related CDKs | only the treatment with AZD5438-PROTAC-8 resulted in the degradation of CDK2 | 
3 | Cc1ncsc1-c1ccc(CNC(=O)[C@@H]2C[C@@H](O)CN2C(=O)[C@@H](NC(=O)COCCn2cc(CCCS(=O)(=O)c3ccc(Nc4nccc(-c5cnc(C)n5C(C)C)n4)cc3)nn2)C(C)(C)C)cc1 [Example 2, (2S,4R)-4-hydroxy-1-((S)-2-(2-(2-(4-(3-((4-((4-(1-isopropyl-2-methyl-1H-imidazol-5-yl)pyrimidin-2-yl)amino)phenyl)sulfonyl)propyl)-1H-1,2,3-triazol-1-yl)ethoxy)acetamido)-3,3-dimethylbutanoyl)-N-(4-(4-methylthiazol-5-yl)benzyl)pyrrolidine-2-carboxamide] | degrades CDK2 | able to protect the zebrafish lateral line neuromasts from cisplatin and kainic acid damage |  |  | selective for CDK2 degradation | resulted in the degradation of CDK2 | CDK9 degradation (immunoblot) (CDK9): No significant degradation; protection of zebrafish hair cells from cisplatin ototoxicity (FIG. 11A) ([2]; five-day post-fertilization fish, 1 hour pre-incubation, 6 hours co-incubation with cisplatin 400 μM): protects zebrafish hair cells from cisplatin otoxicity; protection of zebrafish lateral line neuromast hair cells from cisplatin toxicity ([2]; listed as AZD5438-PROTAC 8): significantly protects the zebrafish lateral line neuromasts from cisplatin toxicity; protection of zebrafish lateral line neuromast hair cells from cisplatin toxicity ([2]; listed as PROTAC-8): able to protect the zebrafish lateral line neuromasts from cisplatin and kainic acid damage; toxic effect of PROTAC alone on neuromast hair cells ([2]; zebrafish, without cisplatin (FIG. 11A)): did not show any toxic effect; CDK2 degradation on co-incubation with proteasome inhibitor MG-132 (CDK2 [5]; 100 nM PROTAC-8 and 300 nM MG-132, 24 hours): abolished CDK2 degradation; CDK2 degradation (CDK2 [5]; 24 hours, 100 nM concentration): around 50%; DC50 (CDK2 [5]; read-out: half maximal degradation concentration (DC50), CDK2 degradation): > 1000 nM; CDK1 degradation (immunoblot) (CDK1): No significant degradation
4 | Cc1ncsc1-c1ccc(CNC(=O)[C@@H]2C[C@@H](O)CN2C(=O)[C@@H](NC(=O)COCCn2cc(CO[C@H]3CC[C@H](NC(=O)c4n[nH]cc4NC(=O)c4c(F)cccc4F)CC3)nn2)C(C)(C)C)cc1 [Example 4, 4-(2,6-difluorobenzamido)-N-((1S,4r)-4-((1-(2-(2-(((S)-1-((2S,4R)-4-hydroxy-2-((4-(4-methylthiazol-5-yl)benzyl)carbamoyl)pyrrolidin-1-yl)-3,3-dimethyl-1-oxobutan-2-yl)amino)-2-oxoethoxy)ethyl)-1H-1,2,3-triazol-4-yl)methoxy)cyclohexyl)-1H-pyrazole-3-carboxamide] |  |  |  | did not show any CDK2 degradation | nor changes in the abundance of any of the closely related CDKs |  | 
5 | O=C(NC1CCNCC1)c1n[nH]cc1NC(=O)c1c(Cl)cccc1Cl [AT7519] |  |  | can prevent cisplatin-induced ototoxicity in vivo |  |  |  | 
6 | O=C1CCC(N2C(=O)c3cccc(NCCOCCOCCOCCn4cc(CO[C@H]5CC[C@H](NC(=O)c6n[nH]cc6NC(=O)c6c(F)cccc6F)CC5)nn4)c3C2=O)C(=O)N1 (some centres unmarked) [Example 3, 4-(2,6-difluorobenzamido)-N-((1r,4r)-4-((1-(2-(2-(2-(2-((2-(2,6-dioxopiperidin-3-yl)-1,3-dioxoisoindolin-4-yl)amino)ethoxy)ethoxy)ethoxy)ethyl)-1H-1,2,3-triazol-4-yl)methoxy)cyclohexyl)-1H-pyrazole-3-carboxamide] |  |  |  | did not show any CDK2 degradation | nor changes in the abundance of any of the closely related CDKs |  | 
